Data as given in paper PMC5432571 (Frontiers in Molecular Neuroscience, 2017).
Read-outs that look alike come from different tables or passages of the source.

Target: T1, G254A-α1 GlyR (Homo sapiens, UniProt P23415, G282A)
T1 construct: expressed in transfected cells; host or cells: CHO cells
T1 sequence (P23415 29-449 isoform P23415-2 G282A limits assumed): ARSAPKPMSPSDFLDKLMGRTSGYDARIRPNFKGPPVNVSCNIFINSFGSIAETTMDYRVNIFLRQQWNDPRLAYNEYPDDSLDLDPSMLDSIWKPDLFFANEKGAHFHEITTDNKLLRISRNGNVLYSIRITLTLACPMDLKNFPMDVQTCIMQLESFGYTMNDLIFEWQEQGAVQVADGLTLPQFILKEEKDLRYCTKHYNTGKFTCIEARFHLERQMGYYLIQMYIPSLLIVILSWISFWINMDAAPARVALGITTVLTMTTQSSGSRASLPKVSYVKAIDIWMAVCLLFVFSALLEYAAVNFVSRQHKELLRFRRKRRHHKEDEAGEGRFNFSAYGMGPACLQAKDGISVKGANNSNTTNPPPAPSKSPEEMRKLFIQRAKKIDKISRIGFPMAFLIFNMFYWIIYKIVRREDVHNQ
Assay: Whole-cell patch-clamp of glycine-induced currents, G254A-α1 GlyR mutant expressed in CHO cells
Type: cell-based
Conditions: for inhibition at 30 µM / inhibition at 100 µM / inhibition at 300 µM: CHO, long application protocol, read-out: inhibition of G254A-α1 GlyR mediated currents; for inhibition at 30 µM: NFA 30 μM; for inhibition at 100 µM: NFA 100 μM; for inhibition at 300 µM: NFA 300 μM
Protocol: The experiments were carried out on cultured Chinese hamster ovary (CHO) cells obtained from the American Type Tissue Culture Collection (ATCC, Molsheim, France) that were maintained in culture conditions as previously described (Mukhtarov et al., [2013]; Maleeva et al., [2015]).
One day before transfection, cells were plated on the cover slips (12 mm in diameter) and placed inside 35-mm cell culture dishes with 2 ml of medium. Transfection was performed using the Lipofectamine 3000 protocol (Life Technology, USA). To facilitate identification of transfected cells a green fluorescent protein (GFP) was added to the transfection mixture. For expression of functional heteromeric receptors, cells were simultaneously transfected with cDNAs of α and β subunits in the ratio 1:10. Three hours after the initial exposure of cells to the cDNAs the culture medium was replaced with that containing strychnine (1 μM), which prevents spontaneous activation of GlyRs. Electrophysiological recordings were performed in the fluorescent cells 24–72 h after transfection.
Whole-cell and outside-out recordings were performed at room temperature (20–25°C) using an EPC-9 amplifier (HEKA Elektronik, Germany). Cells were continuously superfused with external solution containing (mM): NaCl 140, CaCl2 2, KCl 2.8, MgCl2 4, HEPES 20, glucose 10; pH 7.4; 320–330 mOsm. Intracellular solution used for filling recording patch pipettes contained (mM): CsCl 140, CaCl2 6, MgCl2 2, MgATP 2, NaGTP 0.4, HEPES/CsOH 10, BAPTA (tetrapotassium salt) 2; pH 7.3; 290 mOsm. Two different protocols of solutions application were used in this study. […] A “ramp protocol” implies the gradual change of Vhold alternately from −80 to +80 mV and from +80 to −80 mV during 1 s, Vhold was fixed at −80 or +80 mV at the beginning and at the end of the ramp for 500 ms (Figure 2B).
Recording pipettes were pulled from borosilicate glass capillaries (Harvard Apparatus Ltd, USA) and had resistances of 5–10 MOhm. For the rapid replacement of the solutions, the fast application system was used. Three parallel rectangular tubes (100 × 100 μm) were positioned 40–50 μm above the recorded cell. The movement of the tubes was controlled by a computer-driven fast exchange system (SF 77A Perfusion Fast-Step, Warner, USA) allowing a 10–90% solution exchange in 3–5 ms, as measured by open electrode controls (1/10 external solution/water). Cells with low input resistance (<150 MOhm) and a rapid run-down (>30% with repetitive application) were excluded from analysis.
Electrophysiological recordings were performed using PatchMaster (HEKA Electronic, Germany) software.
The fractional electrical distance from the external side of the membrane (δ) at which bound NFA blocked the current was calculated using the Woodhull equation: IC50(V)=IC50(0) exp (−δFV/RT), where IC50(V) is IC50 at the given membrane potential, IC50(0) – at 0 mV, V – membrane potential and F, R, T have their usual meanings. δ was determined from a plot of IC50 values against membrane potential.

SMILES: O=C(O)c1cccnc1Nc1cccc(C(F)(F)F)c1 [NFA, Niflumic acid]
- IC50 (+30 mV, glycine 30 μM, representative, read-out: NFA IC50 (representative IC50 curve)): 92 µM
- IC50 (+30 mV, glycine 100 μM, representative, read-out: NFA IC50 (representative IC50 curve)): 106 µM
- IC50 (+80 mV, glycine 30 μM, ramp protocol, mean ± SEM, read-out: IC50 of NFA): 64 ± 10 µM
- IC50 (+80 mV, glycine 30 μM, representative, read-out: NFA IC50 (representative IC50 curve)): 68 µM
- IC50 (+80 mV, glycine 100 μM, representative, read-out: NFA IC50 (representative IC50 curve)): 57 µM
- inhibition at 30 µM (Vhold +30 mV, glycine 30 μM): 23 ± 7%
- inhibition at 30 µM (Vhold −30 mV, glycine 30 μM): 22 ± 4%
- inhibition at 100 µM (Vhold +30 mV, glycine 30 μM): 43 ± 10%
- inhibition at 100 µM (Vhold −30 mV, glycine 30 μM): 34 ± 6%
- inhibition at 300 µM (Vhold +30 mV, glycine 30 μM): 76 ± 4%
- inhibition at 300 µM (Vhold −30 mV, glycine 30 μM): 52 ± 11%
- IC50 (MP +80 mV, increased agonist concentration (glycine 100 μM), mean ± SEM, read-out: IC50 of NFA): 58 ± 8 µM
- IC50 (at negative potentials, glycine 30 μM, ramp protocol, mean ± SEM, read-out: IC50 of NFA): 257 ± 25 µM
- level of the NFA binding site from the extracellular side (both examined agonist concentrations, Woodhull analysis): ~ 30%
- Fractional electrical distance (δ) from the extracellular side of the membrane (glycine 30 μM, Woodhull analysis): 0.37 ± 0.04 (n = 9)
- Fractional electrical distance (δ) from the extracellular side of the membrane (glycine 100 μM, Woodhull analysis): 0.30 ± 0.04 (n = 7)
- Hill coefficient (nH) of NFA interaction (membrane potential 30 mV, glycine 30 μM): 1.3 ± 0.08
- Hill coefficient (nH) of NFA interaction (membrane potential 50 mV, glycine 30 μM): 1.36 ± 0.11
- Hill coefficient (nH) of NFA interaction (membrane potential 70 mV, glycine 30 μM): 1.26 ± 0.1
- Hill coefficient (nH) of NFA interaction (membrane potential 80 mV, glycine 30 μM): 1.22 ± 0.09
- Hill coefficient (nH) of NFA interaction (membrane potential −50 mV, glycine 30 μM): 1.37 ± 0.18
- Hill coefficient (nH) of NFA interaction (membrane potential −70 mV, glycine 30 μM): 1.34 ± 0.1
- Hill coefficient (nH) of NFA interaction (membrane potential −80 mV, glycine 30 μM): 1.46 ± 0.16
- IC50 (−30 mV, glycine 30 μM, representative, read-out: NFA IC50 (representative IC50 curve)): 185 µM
- IC50 (−30 mV, glycine 100 μM, representative, read-out: NFA IC50 (representative IC50 curve)): 190 µM
- IC50 (−80 mV, glycine 30 μM, representative, read-out: NFA IC50 (representative IC50 curve)): 230 µM
- IC50 (−80 mV, glycine 100 μM, representative, read-out: NFA IC50 (representative IC50 curve)): 260 µM
